Data on 21 compounds can be found in ChEMBL document CHEMBL1135472 (J Med Chem, 2002).

Activity calls are given as the source filed them. The rule behind the calls is not given here.

Test [1] addresses T1, Seed linoleate 13S-lipoxygenase-1 (Glycine max, UniProt P08170).
T1 sequence (P08170 whole entry): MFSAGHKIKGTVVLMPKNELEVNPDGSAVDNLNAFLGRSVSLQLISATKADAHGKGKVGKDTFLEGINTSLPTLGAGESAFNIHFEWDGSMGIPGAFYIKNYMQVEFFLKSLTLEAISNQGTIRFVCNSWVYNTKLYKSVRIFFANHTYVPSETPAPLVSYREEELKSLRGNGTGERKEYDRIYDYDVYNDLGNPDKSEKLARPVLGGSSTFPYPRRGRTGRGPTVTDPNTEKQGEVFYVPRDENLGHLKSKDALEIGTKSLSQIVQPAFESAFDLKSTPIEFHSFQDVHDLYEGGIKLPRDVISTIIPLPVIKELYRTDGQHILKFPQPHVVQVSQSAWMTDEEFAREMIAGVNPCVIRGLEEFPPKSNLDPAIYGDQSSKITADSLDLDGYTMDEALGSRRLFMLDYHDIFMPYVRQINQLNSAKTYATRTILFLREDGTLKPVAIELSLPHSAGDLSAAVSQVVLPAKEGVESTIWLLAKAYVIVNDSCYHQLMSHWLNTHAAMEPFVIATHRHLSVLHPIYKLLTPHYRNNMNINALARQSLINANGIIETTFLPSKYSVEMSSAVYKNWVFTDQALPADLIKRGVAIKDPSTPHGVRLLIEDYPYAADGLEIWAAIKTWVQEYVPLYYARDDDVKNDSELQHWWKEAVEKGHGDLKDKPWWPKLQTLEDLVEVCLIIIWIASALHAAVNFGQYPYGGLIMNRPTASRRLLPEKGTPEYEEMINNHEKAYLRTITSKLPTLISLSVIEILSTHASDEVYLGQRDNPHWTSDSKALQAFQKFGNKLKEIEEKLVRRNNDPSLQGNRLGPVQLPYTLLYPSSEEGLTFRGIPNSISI
Nature of the test: Inhibitory activity against soybean 1-lipoxygenase (SLO).

Test [2] has as its target T2, Polyunsaturated fatty acid lipoxygenase ALOX12 (Homo sapiens, UniProt P18054).
T2 sequence (P18054 whole entry): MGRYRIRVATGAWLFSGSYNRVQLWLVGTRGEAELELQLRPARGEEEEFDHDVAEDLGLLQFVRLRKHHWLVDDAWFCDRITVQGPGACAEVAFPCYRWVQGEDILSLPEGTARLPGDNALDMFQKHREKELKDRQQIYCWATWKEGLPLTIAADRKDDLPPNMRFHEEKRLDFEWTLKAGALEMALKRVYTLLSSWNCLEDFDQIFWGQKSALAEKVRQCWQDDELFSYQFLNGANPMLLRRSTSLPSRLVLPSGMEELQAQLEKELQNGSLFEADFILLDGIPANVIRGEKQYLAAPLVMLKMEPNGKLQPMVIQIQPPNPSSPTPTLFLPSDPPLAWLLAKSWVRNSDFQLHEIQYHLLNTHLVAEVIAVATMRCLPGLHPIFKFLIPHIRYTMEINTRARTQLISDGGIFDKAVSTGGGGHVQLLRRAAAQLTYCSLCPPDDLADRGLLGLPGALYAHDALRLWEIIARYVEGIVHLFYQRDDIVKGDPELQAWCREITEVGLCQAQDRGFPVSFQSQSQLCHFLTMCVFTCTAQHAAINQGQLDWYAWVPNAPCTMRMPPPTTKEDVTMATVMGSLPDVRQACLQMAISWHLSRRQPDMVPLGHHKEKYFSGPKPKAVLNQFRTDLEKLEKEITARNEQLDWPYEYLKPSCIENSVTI
Nature of the test: Inhibitory activity against human platelet 12-lipoxygenase (12-HLO).

Test [3] concerns the target T3, Polyunsaturated fatty acid lipoxygenase ALOX12 (Homo sapiens) (UniProt P18054).
T3 sequence (whole entry): T2 sequence (P18054 whole entry)
Nature of the test: % inhibition against human platelet 12-lipoxygenase (12-HLO). The conditions noted are these: concentration not given here.

Test [4] concerns the target T4, Polyunsaturated fatty acid lipoxygenase ALOX15 (Homo sapiens, UniProt P16050).
T4 sequence (P16050 whole entry): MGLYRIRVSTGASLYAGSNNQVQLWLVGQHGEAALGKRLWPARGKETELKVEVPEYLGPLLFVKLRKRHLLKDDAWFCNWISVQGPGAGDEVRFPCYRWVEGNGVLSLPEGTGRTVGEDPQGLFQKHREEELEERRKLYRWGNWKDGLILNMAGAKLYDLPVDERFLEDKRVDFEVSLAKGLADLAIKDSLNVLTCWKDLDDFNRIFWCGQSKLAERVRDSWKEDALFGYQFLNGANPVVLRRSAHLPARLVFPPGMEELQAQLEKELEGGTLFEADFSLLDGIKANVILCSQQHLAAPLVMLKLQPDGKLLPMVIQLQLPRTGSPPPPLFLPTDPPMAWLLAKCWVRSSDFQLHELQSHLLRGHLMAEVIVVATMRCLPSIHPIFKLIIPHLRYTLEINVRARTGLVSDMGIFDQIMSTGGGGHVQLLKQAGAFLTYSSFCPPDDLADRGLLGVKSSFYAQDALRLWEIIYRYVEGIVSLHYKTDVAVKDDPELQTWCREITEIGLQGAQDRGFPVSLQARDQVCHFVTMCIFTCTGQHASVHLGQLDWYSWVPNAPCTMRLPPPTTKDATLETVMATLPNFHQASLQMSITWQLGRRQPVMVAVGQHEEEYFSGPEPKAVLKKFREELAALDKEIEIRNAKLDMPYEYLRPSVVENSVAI
Nature of the test: Concentration that cause 50% activation of human reticulocyte 15-lipoxygenase (15-HLO).

Test [5] deals with T5, Seed linoleate 13S-lipoxygenase-1 (Glycine max) (UniProt P08170).
T5 sequence (whole entry): T1 sequence (P08170 whole entry)
The experiment in a line: % inhibition against soybean 1-lipoxygenase (SLO).

Test [6] addresses T6, Polyunsaturated fatty acid lipoxygenase ALOX15 (Homo sapiens) (UniProt P16050).
T6 sequence (whole entry): T4 sequence (P16050 whole entry)
Nature of the test: Compound was evaluated for the percent increase in activation concentration of human reticulocyte 15-lipoxygenase (15-HLO).

Test [7] can be described thus: Inhibition ratio of human reticulocyte 15-lipoxygenase (15-HLO)/ human platelet 12-lipoxygenase (12-HLO); NI is no inhibition.
Test [8] concerns the target T3, Polyunsaturated fatty acid lipoxygenase ALOX12 (Homo sapiens). The experiment in a line: percent inhibition against human platelet 12-lipoxygenase (12-HLO); NI is no inhibition.
In test [9] the target is T6, Polyunsaturated fatty acid lipoxygenase ALOX15 (Homo sapiens). Nature of the test: Inhibitory activity against human reticulocyte 15-lipoxygenase (15-HLO); NI is no inhibition.
Test [10] addresses T5, Seed linoleate 13S-lipoxygenase-1 (Glycine max). Nature of the test: percent inhibition against soybean 1-lipoxygenase (SLO);NI is no inhibition.
The target in test [11] is T6, Polyunsaturated fatty acid lipoxygenase ALOX15 (Homo sapiens). Nature of the test: Inhibitory activity against human reticulocyte 15-lipoxygenase (15-HLO). The conditions noted are these: concentration not given here.

Regarding `C[C@H](Cc1ccc(O)c(O)c1)[C@@H](C)Cc1ccc2c(c1)OC(C)(C)O2`, the IC50 in test [1] was 140 nM; in test [2] it was 2200 nM.

In the case of `CC(C)C(=O)Oc1ccc(C[C@@H](C)[C@@H](C)Cc2ccc(OC(=O)C(C)C)c(OC(=O)C(C)C)c2)cc1OC(=O)C(C)C`, the inhibition in test [3] and in [5] was 0% each time. In test [4], this compound returned an AC50 of 500 nM. This compound came in with an activation in test [6] of 70%.

As to `CCCCCC(=O)Oc1ccc(C[C@@H](C)[C@@H](C)Cc2ccc(OC(=O)CCCCC)c(OC(=O)CCCCC)c2)cc1OC(=O)CCCCC`, the inhibition in test [3] and in [5] was 0% in each case. The compound also returned an AC50 in test [4] of 200 nM. In addition, the activation in test [6] stood at 70%.

As for `COc1cc(C[C@@H](C)[C@@H](C)Cc2cc(OC)c(OC)cc2C(C)=O)c(C(C)=O)cc1OC`, the inhibition entry in [7], in [8], in [9] and in [10] was “inactive” throughout.

The compound `CC(=O)c1cc(O)c(O)cc1C[C@@H](C)[C@@H](C)Cc1cc(O)c(O)cc1C(C)=O` had a concentration for half-maximal inhibition (IC50) in test [2] of 26000 nM.

Consider `CCC(=O)Oc1cc(C[C@@H](C)[C@@H](C)Cc2cc(OC(=O)CC)c(OC(=O)CC)cc2[N+](=O)[O-])c([N+](=O)[O-])cc1OC(=O)CC`, for which the inhibition in [11], in test [3] and in test [5] was 0% each time.

`COc1ccc(C[C@@H](C)[C@@H](C)Cc2ccc(OC)c(OC)c2)cc1OC`: the inhibition entry in [7], in [8], in test [9] and in test [10] was “inactive” each time.

For `COc1cc(C[C@@H](C)[C@@H](C)Cc2ccc(O)c(O)c2)ccc1O`, the 50% inhibitory concentration (IC50) in [1] was found to be 170 nM; in [2], 14000 nM.

As for `COc1cc(Cl)c(C[C@@H](C)[C@@H](C)Cc2cc(OC)c(OC)cc2Cl)cc1OC`, the inhibition result in test [7], in test [8], in test [9] and in [10] was “inactive” in each case.

As for `C[C@H](Cc1cc(O)c(O)cc1Br)[C@@H](C)Cc1cc(O)c(O)cc1Br`, the concentration for half-maximal inhibition (IC50) in [1] was 57 nM; in [2], 430 nM.

With `COc1cc(C[C@@H](C)[C@@H](C)Cc2cc(OC)c(OC)cc2NC(C)=O)c(NC(C)=O)cc1OC`, the inhibition entry in test [7], in [8], in [9] and in [10] was “inactive” throughout.

Take `COc1cc(N)c(C[C@@H](C)[C@@H](C)Cc2cc(OC)c(OC)cc2N)cc1OC`: the inhibition in test [11], in test [3] and in test [5] was 0% each time.

On to `CCC(=O)Oc1ccc(C[C@@H](C)[C@@H](C)Cc2ccc(OC(=O)CC)c(OC(=O)CC)c2)cc1OC(=O)CC`, for which the inhibition in [3] and in [5] was 0% throughout. In [4], this compound gave a half-maximal activity concentration (AC50) of 300 nM. Besides, the activation in [6] stood at 22%.

Regarding `CCc1cc(O)c(O)cc1C[C@@H](C)[C@@H](C)Cc1cc(O)c(O)cc1CC`, the half-maximal inhibitory concentration (IC50) in test [1] worked out at 140 nM; in [2], 3100 nM.

For the compound `CC(=O)Oc1ccc(C[C@@H](C)[C@@H](C)Cc2ccc(OC(C)=O)c(OC(C)=O)c2)cc1OC(C)=O`, the inhibition in [11], in test [3] and in test [5] was 0% throughout.

Take `C[C@H](Cc1cc(O)c(O)cc1Cl)[C@@H](C)Cc1cc(O)c(O)cc1Cl`: the results for the IC50 in test [1] and in [2] were 65 nM and 360 nM, respectively.

Consider `C[C@H](Cc1cc(O)c(O)cc1[N+](=O)[O-])[C@@H](C)Cc1cc(O)c(O)cc1[N+](=O)[O-]`, for which the half-maximal inhibitory concentration (IC50) in test [2] is 360 nM.

On to `COc1cc(Br)c(C[C@@H](C)[C@@H](C)Cc2cc(OC)c(OC)cc2Br)cc1OC`, for which the inhibition entry in test [7], in test [8], in test [9] and in [10] was “inactive” in each case.

As to `C[C@H](Cc1ccc(OCOC(=O)C(C)(C)C)c(OCOC(=O)C(C)(C)C)c1)[C@@H](C)Cc1ccc(OCOC(=O)C(C)(C)C)c(OCOC(=O)C(C)(C)C)c1`, the inhibition in [11], in test [3] and in test [5] was 0% throughout.

For `COc1cc(C[C@@H](C)[C@@H](C)Cc2cc(OC)c(OC)cc2[N+](=O)[O-])c([N+](=O)[O-])cc1OC`, the inhibition in test [11], in test [3] and in [5] was 0% each time.

For `CCCC(=O)Oc1ccc(C[C@@H](C)[C@@H](C)Cc2ccc(OC(=O)CCC)c(OC(=O)CCC)c2)cc1OC(=O)CCC`, the inhibition in test [3] and in test [5] was 0% throughout. This compound also gave an AC50 in test [4] of 300 nM. In addition, the activation in test [6] came to 77%.

By IC50 is commonly meant the midpoint of a concentration-inhibition curve. In general, inhibition refers to the change of the read-out against control, counted positive when it falls. One may read the AC50 as the concentration giving half of the maximal activity seen. The low end stands for activity at low concentration, the high end for activity only at high concentration.
